Measured values taken from patent US9115122B2, “Non-ATP dependent inhibitors of extracellular signal-regulated kinase (ERK)” (UNIVERSITY OF MARYLAND, BALTIMORE, priority 2012, dated 2015).
Where two headings read alike, the source gives them in different places.

Experiments:
A375 melanoma cells [1] = assay: Cell proliferation WST-1 assay, single dose (Example 4); assay type: cell-based; conditions: 100 μM, 48 hours
Procedure, shortened: (§1)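 Cells (~5000/well) recovered 16-20 hours after seeding, then were exposed to test compound for 48 hours. WST-1 reagent was added and absorbance read at 450 nm, background at 650 nm subtracted. Values normalized to DMSO-only control cells.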

RPMI-7951 melanoma cells = assay: as above; assay type: cell-based; conditions: 100 μM, 48 hours
Procedure, shortened: as §1

[2] = system: HeLa cervical carcinoma cells; assay: as above; assay type: cell-based; conditions: 100 μM, 48 hours
Procedure, shortened: as §1

SK-MEL-28 melanoma cells [3] = assay: as above; assay type: cell-based; conditions: 100 μM, 48 hours
Procedure, shortened: as §1

[4] = system: Jurkat T-cell leukemia cells; assay: as above; assay type: cell-based; conditions: 100 μM, 48 hours
Procedure, shortened: as §1

HL-60 leukemic cells = assay: as above; assay type: cell-based; conditions: 100 μM, 48 hours
Procedure, shortened: as §1

[5] = basic group replacing the ethylamine group; cited from earlier work
RPMI7951 melanoma cells [6] = assay: Cell proliferation, fluorescent Cell Titer Blue Assay (Example 1); assay type: cell-based; conditions: Homo sapiens, RPMI-7951; 48 hours
Description: (§2) FIG. 5. Dose dependent inhibition of cancer cell proliferation in vitro by SF-3-026 and analogs. A375 (closes circles), RPM17951 (closed squares), HeLa (open circles), or Jurkat (open squares) cells were treated for 48 hours with indicated concentration of (a) SF-3-026, (b) SF-2-027, (c) SF-2-029, or (d) SF-2-030 and cell proliferation was assessed by the fluorescent Cell Titer Blue Assay. The data were reproduced in 3 separate experiments.
(§3) Cells were seeded at 25,000 cells/well in 96-well plate and cultured overnight. Cells were treated for 24 hours with various concentrations of compounds and cell viability or caspase 3/7 activity were measured according to manufacturer's instructions using the fluorescent Cell Titer Blue Assay (Promega) or luminescent Caspase 3/7 Glo Assay (Promega).
(§4) It was next determined whether inhibition of AP-1 proteins by SF-3-026 and analogs affected the proliferation of cancer cells driven by mutations that constitutively activate the ERK1/2 pathway. For these experiments, A375 and RPMI7951 melanoma cells, which have a valine to glutamate mutation on residue 600 in BRaf that causes constitutive ERK1/2 activation, were chosen. Moreover, RPMI7951 cells are resistant to clinically used BRaf inhibitors due to overexpression of MAP3K8 (the gene encoding COT/Tp12) that re-activates ERK1/2 signaling. Both melanoma cells lines were treated with varying doses of SF-3-026 or analogs and cell viability was compared to HeLa cervical carcinoma and Jurkat T-cell leukemia cells, which are p53 defective but contain no known activating mutations in the ERK1/2 pathway.

A375 melanoma cells [7] = assay: as above; assay type: cell-based; conditions: Homo sapiens, A-375; 48 hours
Description: as §2, §3, §4

[8] = system: HeLa cervical carcinoma cells; assay: as above; assay type: cell-based; conditions: Homo sapiens, 48 hours
Description: as §2, §3, §4

[9] = system: Jurkat T-cell leukemia cells; assay: as above; assay type: cell-based; conditions: Homo sapiens, 48 hours
Description: as §2, §3, §4

[10] = system: MEK1-induced AP-1 promoter activity; assay: AP-1 promoter luciferase assay, HeLa cells expressing active MEK1 mutant; assay type: cell-based; conditions: Homo sapiens, 4 hours, read-out: IC50 inhibition of MEK1-induced AP-1 promoter activity
Description: FIG. 4. Compound SF-3-026 and analogs inhibit SRE and AP-1 transcription factor function. (a) HeLa cells were transfected with constructs containing SRE or AP-1 promoters driving luciferase expression and then stimulated with EGF in the presence or absence of SF-3-026 for 4 hours followed by measurements of luciferase activity. Cells treated with U0126 were used as a positive inhibitor control. (b and c) HeLa cells were prepared and treated as in (a) with the indicated concentrations of SF-3-026 or analogs for 4 hours followed by the measurement of luciferase activity regulated by the SRE (b) or AP-1 (c) promoters. Data in (b and c) were normalized to EGF-only treatment and represent the mean and standard deviation from three independent experiments. (d) Compound SF-3-026 and analogs inhibit MEK1-induced AP-1 transcription factor function. HeLa cells were transfected with the AP-1 promoter construct and a constitutively active MEK1 mutant in the presence (10 μM) or absence of the MEK1/2 inhibitor (U0126) or an ATP-competitive ERK inhibitor (ERKi) for 4 hours followed by measurements of luciferase activity. (e) Cells expressing the AP-1 promoter and an active MEK-1 construct were treated with the indicated concentrations of SF-3-026 or analogs for 4 hours followed by the measurement of luciferase activity. Data in (e) were normalized to active MEK1-only treatment and represent the mean and standard deviation from three independent experiments.
HeLa cells were seeded in 24-well plates (40,000 cells/well) and incubated 18 hours to achieve ˜60-70% confluent. Cells were transfected with activator protein-1 (pAP1(PMA)-TA-Luc; Clontech) or the serum response element (pGL4.33-SRE; Promega) luciferase reporter plasmids (250 ng/well) using Lipofectamine™ (Invitrogen). After 16 hours, cells were pre-treated with varying amounts of compounds as indicated for 20 minutes, followed by stimulation with EGF (25 ng/mL) for 4.5 hr. In some experiments, cells transfected with the pAP1(PMA)-TA-Luc promoter and a constitutively active MEK1 mutant cDNA were treated with varying amounts of compounds during the last 4 hours of incubation. The luciferase activity in the cell extracts was determined with a Dual Luciferase Assay System (Promega) according to the manufacturer's instructions. Luciferase activities were monitored with a Lumat LB 9507 luminometer (Berthold Technology) and data were normalized to the amount of protein in each sample. […]

Jurkat cells = assay: Dose-response growth inhibition (GI50) of select compounds; assay type: cell-based
HeLa cells = assay: as above; assay type: cell-based
RPMI7951 melanoma cells [11] = assay: as above; assay type: cell-based; conditions: two days
Description: (§5) An example of the dose response curve for compound 30h and the BRaf inhibitor PLX4032 for inhibiting the growth of melanoma cell lines is shown in FIG. 14. […] A summary of GI50 values for select compounds along with comparisons to know ERK pathway inhibitors in various cell lines is shown in Table 13. […] First, thiazolidinedione compounds have been identified to be selective inhibitors of cancer cell lines containing activated ERK signaling. Second, changes in the 4-ethoxyphenyl component of the parent compound 76 improve selectivity and potency for inhibiting melanoma cell growth. Third, compound 30h is a potent inhibitor of melanoma cell lines that have become resistant to the clinically relevant BRaf and MEK inhibitors. […] Lastly, 30h is as potent as the ATP-competitive pyrazolopyridazinamine ERK inhibitor (FR180204) in preventing melanoma cell proliferation and provides an alternative non-ATP-dependent approach to target cancer cells that are dependent on active ERK signaling.
(§6) Melanoma cells (A375, SK-MEL-28, and RPMI7951) were seeded at a density of 5,000 per well in 96-well plate. After overnight incubation, cells were treated with varying doses of PLX4032 (A) or 31h (B) for two days. Cell viability was determined by the addition of Cell Titer-Blue Reagent (20 μL/well) followed by 2 hours of incubation at 37° C. after which fluorescence was recorded (555/585 nm). Cell viability was expressed as percentage of vehicle control and data represent the average of three individual experiments.

A375 melanoma cells [12] = assay: as above; assay type: cell-based; conditions: two days
Description: as §5, §6

SK-MEL-28 melanoma cells [13] = assay: as above; assay type: cell-based; conditions: two days
Description: as §5, §6

[14] = system: serum response element (SRE); assay: SRE promoter luciferase assay, HeLa cells (Example 4); assay type: cell-based; conditions: EGF
Description: HeLa cells were seeded in 24-well plates (4×10^4 cells/well) and incubated 18 hours prior to achieve ˜60-70% confluent. Cells were transfected with activator protein-1 (pAP1(PMA)-TA-Luc; Clontech) or the serum response element (pGL4.33-SRE; Promega) luciferase reporter plasmids (250 ng/well) using Lipofectamine™ (Invitrogen). After 16 hours, cells were treated with increasing amount of compounds as indicated for 20 minutes, followed by stimulation with EGF (25 ng/mL) for 4.5 hr. The luciferase activity in the cell extracts was determined with a Dual Luciferase Assay System (Promega) according to the manufacturer's instructions. Luciferase activities were monitored with a Lumat LB 9507 luminometer (Berthold Technology) and data were normalized to the amount of protein in each sample.

Row | GI50 (RPMI7951 melanoma cells [11]; Homo sapiens, RPMI-7951, 48 h) | GI50 (A375 melanoma cells [12]; Homo sapiens, A-375, 48 h) | GI50 (SK-MEL-28 melanoma cells [13]; Homo sapiens, SK-MEL-28, 48 h) | Compound | Cell Viability (% of Vehicle) A375 (A375 melanoma cells [1]) | Cell Viability (% of Vehicle) RPMI-7951 (RPMI-7951 melanoma cells) | Cell Viability (% of Vehicle) HeLa [2] | Cell Viability (% of Vehicle) SK-MEL-28 (SK-MEL-28 melanoma cells [3]) | Cell Viability (% of Vehicle) Jurkat [4] | Cell Viability (% of Vehicle) HL-60 (HL-60 leukemic cells) | pKa [5] | further results
1 | – | – | – | [H]/N=C(/N)NCCN1C(=O)SC(=Cc2ccc(OCC)cc2)C1=O [Compound 28c, (Z)-1-(2-(5-(4-ethoxybenzylidene)-2,4-dioxothiazolidin-3-yl)ethyl)guanidine] | 31 ± 4 % of Vehicle | 42 ± 6 % of Vehicle | 17 ± 2 % of Vehicle | 55 ± 6 % of Vehicle | 6.5 ± 0.5 % of Vehicle | 20 ± 6 % of Vehicle | ~12 | –
2 | – | – | – | Cc1ccc(S(=O)(=O)OC2C=CS(=O)(=O)C2)cc1 (stereo not drawn) [SF-3-027] | – | – | – | – | – | – | – | GI50 (RPMI7951 melanoma cells [6]): 3.1 µM; GI50 (A375 melanoma cells [7]): 5.5 µM; GI50 [8]: 22 µM; GI50 [9]: > 50 µM; IC50 [10]: ~40 µM
3 | 20 µM | 0.03 µM | 0.17 µM | Cn1cnc2c(F)c(Nc3ccc(Br)cc3Cl)c(C(=O)NOCCO)cc21 [AZD6244, reference compound] | – | – | – | – | – | – | – | GI50 (Jurkat cells; Homo sapiens, Jurkat): > 10 µM; GI50 (HeLa cells; Homo sapiens, HeLa): > 10 µM
4 | 17 µM | 24 µM | 46 µM | CCOc1ccc(/C=C2\SC(=O)N(CCCN)C2=O)cc1 [Compound 22a, (Z)-3-(3-aminopropyl)-5-(4-ethoxybenzylidene)thiazolidine-2,4-dione] | 0.7 ± 0.1 % of Vehicle | 0.6 ± 0.1 % of Vehicle | 12 ± 2 % of Vehicle | 0.5 ± 0.01 % of Vehicle | 9.0 ± 2 % of Vehicle | 8.0 ± 72 % of Vehicle | – | inhibition of ERK-mediated SRE promoter activity [14]: selective inhibition of the SRE promoter activity
5 | 11 µM | 0.07 µM | 0.38 µM | CCCS(=O)(=O)Nc1ccc(F)c(C(=O)c2c[nH]c3ncc(-c4ccc(Cl)cc4)cc23)c1F [PLX4032, reference compound] | – | – | – | – | – | – | – | GI50 (Jurkat cells; Homo sapiens, Jurkat): > 10 µM; GI50 (HeLa cells; Homo sapiens, HeLa): > 10 µM
6 | – | – | – | CCOc1ccc(/C=C2\SC(=O)N(Cc3cnc[nH]3)C2=O)cc1 [Compound 28a, (Z)-3((1H-imidazol-5-yl)methyl)-5-(4-ethoxybenzylidene)thiazolidine-2,4-dione] | 101 ± 2 % of Vehicle | 70 ± 2 % of Vehicle | 80 ± 4 % of Vehicle | 74 ± 6 % of Vehicle | 106 ± 6 % of Vehicle | 123 ± 20 % of Vehicle | ~7 | –
7 | – | – | – | CCOc1ccc(/C=C2\SC(=O)N(Cc3cccc(N)n3)C2=O)cc1 [Compound 28b, (Z)-3-((6-aminopyridin-2-yl)methyl)-5-(4-ethoxybenzylidene)thiazolidine-2,4-dione] | 111 ± 1 % of Vehicle | 101 ± 4 % of Vehicle | 87 ± 6 % of Vehicle | 86 ± 3 % of Vehicle | 105 ± 5 % of Vehicle | 107 ± 26 % of Vehicle | ~6 | –
8 | – | – | – | Nc1[nH]nc2nnc(-c3c(-c4ccccc4)nn4ccccc34)cc12 [FR180204, reference compound] | – | – | – | – | – | – | – | GI50 (Jurkat cells): > 10 µM; GI50 (HeLa cells): > 10 µM; GI50 (RPMI7951 melanoma cells [11]): 11 µM; GI50 (A375 melanoma cells [12]): 5 µM; GI50 (SK-MEL-28 melanoma cells [13]): 4 µM
9 | – | – | – | NCCN1C(=O)S/C(=C\c2ccc(O)cc2)C1=O [Compound 30f, (Z)-3-(2-aminoethyl)-5-(4-hydroxybenzylidene)thiazolidine-2,4-dione] | 8.8 ± 2 % of Vehicle | 24 ± 5 % of Vehicle | 63 ± 10 % of Vehicle | 38 ± 3 % of Vehicle | 96 ± 3 % of Vehicle | 17 ± 12 % of Vehicle | – | –
